Test results reported in patent publication US20220242874A1, “CAMPTOTHECIN DERIVATIVES” (SUN PHARMA ADVANCED RESEARCH COMPANY LIMITED, priority 2019, published 2022).
Structures can show the parent of a compound that is named as a salt. Where two headings read alike, the source gives them in different places.

Tests used:
[1] = Comparison of solubility in water; assay type: physicochemical
Text: Comparison of Solubility of Compound I.4 in Water with SN-38

[2] = system: MDA-MB-231 cells; test: In-vitro cancer cell growth inhibition assay (MTT); assay type: cell-based; conditions: Homo sapiens, MDA-MB-231, 96 h, read-out: IC50 (nM) MDA-MB-231
Protocol: (§1) The compounds of the present invention were evaluated for their ability to inhibit the growth of various cell line models of small cell lung cancer (SCLC), colon cancer, pancreatic cancer and triple negative breast cancer (TNBC) in-vitro. Details of the cell lines and their respective complete growth media are described in Table 3. The growth inhibition assay was carried out as described below. Briefly, cells in complete growth media were seeded in 96-well plates at appropriate cell densities (seeding density details described in Table 3) and incubated at 37° C., 5% CO2 (3-4 hours for NCI-H526, NCI-H69, NCI-H187 and overnight for the rest of the cells). Serial dilutions of test compound in DMSO were added to the cells while maintaining the final DMSO concentration of 0.4%-0.5% in the well. Plates were incubated for 96-144 h (the exact duration for each assay is described in Table 3) at 37° C., 5% CO2. Subsequently, MTT (final concentration 0.5 mg/mL in media) was incubated with the cells at 37° C., 5% CO2 for 4-5 hours. The formazan crystals were dissolved overnight at 37° C., 5% CO2 using 100 μL extractant (10% SDS in 0.01N HCl) and quantified using absorbance at 570 nm with reference wavelength 630 nm. Growth inhibition was represented as percent decrease in absorbance compared to vehicle treated cells.

[3] = system: MDA-MB-468 cells; test: In-vitro cancer cell growth inhibition assay (MTT); assay type: cell-based; conditions: Homo sapiens, MDA-MB-468, 96 h, read-out: IC50 (nM) MDA-MB-468
Protocol: as §1

[4] = system: MX-1 cells; test: In-vitro cancer cell growth inhibition assay (MTT); assay type: cell-based; conditions: Homo sapiens, MX1, 144 h, read-out: IC50 (nM) MX-1
Protocol: as §1

[5] = In-vitro stability in mice tumor lysate; conditions: for % Remaining in tumor lysate: spiked 2000 ng/mL, pH 5.5, 37° C.
Protocol: (§2) Aliquot of 100 μL were taken from stability samples in pre-labelled micro-centrifuge tubes. 5 μL of cetirizine working internal standard (5 μg/mL) was added to each tube and vortexed well. 1 mL acetonitrile was added to each tube and vortexed well and then centrifuge at 10000 RPM for 5 min at room temperature. The supernatant was collected in ria vials and evaporated to dryness under nitrogen stream. The samples were reconstituted in 1 mL of 0.1% formic acid in water: acetonitrile 30:70 v/v. The prepared samples were analyzed using LC-MS/MS method. Quantification was done against SN-38 standard, prepared at 2000 ng/mL concentration. SN-38 standard prepared by spiking 5 μL of SN-38 working standard to 95 μL of blank mice tumor homogenate to achieve 2000 ng/mL concentration and vortexed well and processed as described.
(§3) LC-MS/MS Method: Chromatographic separation was achieved on Inertsil C8-3 (50×4.6 mm, 5 μ) with a flow rate of 250 μL/min and an injection volume of 10 μL. The sample cooler was maintained at 10° C. The column oven temperature was set to 40° C. The mobile phase consisted of 0.1% formic acid in Milli Q water and acetonitrile in the ratio of 30:70 v/v, respectively. […] The overall chromatographic run time was 4.0 minutes.
(§4) Detection was performed by tandem mass spectrometry (TSQ Quantum, Discovery MAX, Thermo Electron Corporation) and peak areas were integrated using LCquan software version 2.9 QF1.
(§5) 0 hr standard area was considered as 100% for calculation.

[6] = mouse, 2000 ng/mL, pH 5.5
Protocol: as §2, §3, §4, §5

[7] = Camptosar Prescribing Information; cited from earlier work

| Compound | Solubility in water [1] | IC50 [2] | IC50 [3] | IC50 [4] | % Remaining in tumor lysate ([5]; 0 hr) | % Remaining in tumor lysate ([5]; 1 hr) | % Remaining in tumor lysate ([5]; 2 hr) | % Remaining in tumor lysate ([5]; 4 hr) | % Remaining in tumor lysate ([5]; 6 hr) | % Remaining in tumor lysate ([5]; 8 hr) | time after incubation until cleaved to give active SN-38 ([5]; tumor lysate, 37° C.) | % Remaining in tumor lysate ([6]; 0 h) | % Remaining in tumor lysate ([6]; 1 h) | % Remaining in tumor lysate ([6]; 2 h) | % Remaining in tumor lysate ([6]; 4 h) | % Remaining in tumor lysate ([6]; 6 h) | % Remaining in tumor lysate ([6]; 8 h) | protein bound in plasma [7] |
| --- | --- | --- | --- | --- | --- | --- | --- | --- | --- | --- | --- | --- | --- | --- | --- | --- | --- | --- |
| CCc1c2c(nc3ccc(O)cc13)-c1cc3c(c(=O)n1C2)COC(=O)[C@@]3(CC)OC(=O)OCCSSCCOC(=O)N(C)c1ccc(N2CCN(C)CC2)cc1 [Compound I.4, 2-(2-{N-Methyl-N-[4-(4-methylpiperazin-1-yl)phenyl]carbamoyloxy}ethyldisulfanyl)ethyl [(4S)-4,11-diethyl-3,4,12,14-tetrahydro-9-hydroxy-1H-pyrano[3′,4′:6,7]indolizino[1,2-b]quinoline-3,14-(4H,12H)dione-4-yl] carbonate dihydrochloride] | Solubility: 100 mg/11 ml in water. | 129 nM | 8.2 nM | 6.9 nM | 100.0% | 0.0% | 0.0% | 0.0% | 0.0% | 0.0% | ≤ 1 h | – | – | – | – | – | – | – |
| CCc1c2c(nc3ccc(O)cc13)-c1cc3c(c(=O)n1C2)COC(=O)[C@]3(O)CC [SN-38] | Practically insoluble in water | – | – | – | – | – | – | – | – | – | – | 100.0% | 94.9% | 90.7% | 100.1% | 88.9% | 91.4% | About 96% |
